# Data taken from patent publication US20220313701A1, “MODULATORS OF TREX1” (Constellation Pharmaceuticals, Inc., priority 2019, published 2022).
# pIC50: −log10 of the molar value.
# What was measured:
# [1] = biological target: T1, full length human TREX1 (Homo sapiens, UniProt Q9NSU2); test: TREX1 Biochemical Assay (fluorescence assay, degradation of dsDNA substrate); details: 150 pM TREX1, 60 nM dsDNA substrate, 25 minutes at room temperature
# T1 construct: N-terminally His-Tev tagged full length human TREX1; His-Tev (His tag with TEV site) (N); made in house; host or cells: E. coli
# T1 sequence (Q9NSU2 1-314): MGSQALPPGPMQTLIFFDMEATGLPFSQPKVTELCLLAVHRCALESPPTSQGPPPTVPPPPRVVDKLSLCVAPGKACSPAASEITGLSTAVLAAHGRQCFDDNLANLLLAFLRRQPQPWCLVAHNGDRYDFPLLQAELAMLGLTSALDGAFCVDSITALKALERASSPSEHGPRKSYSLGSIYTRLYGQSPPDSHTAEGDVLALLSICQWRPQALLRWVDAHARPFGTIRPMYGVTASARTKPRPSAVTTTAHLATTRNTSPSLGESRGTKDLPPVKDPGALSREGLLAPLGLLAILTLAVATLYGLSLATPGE
# How it was run: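 N-terminally His-Tev-tagged enzyme expressed in E. coli, 150 pM, with 60 nM dual-labelled dsDNA (TEX615/quencher) in pH 7.4 Tris buffer with MgCl2, 1% DMSO; 10-point dose-response, 25 min at room temperature, then EDTA quench. Fluorescence at 615 nm (excitation 570 nm); IC50 from four-parameter fit against pre-quenched and no-inhibitor controls.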
# [2] = biological target: T2, human TREX2 (residues M44-A279) (Homo sapiens, UniProt Q9BQ50); test: TREX2 Biochemical Assay (fluorescence assay, degradation of dsDNA substrate); details: 2.5 nM TREX2, 60 nM dsDNA substrate, 25 minutes at room temperature
# T2 construct: human TREX2 (residues M44-A279, expressed in E. coli); His-Tev (His tag with TEV site) (N); made in house; host or cells: E. coli
# T2 sequence (Q9BQ50 44-279 isoform Q9BQ50-1): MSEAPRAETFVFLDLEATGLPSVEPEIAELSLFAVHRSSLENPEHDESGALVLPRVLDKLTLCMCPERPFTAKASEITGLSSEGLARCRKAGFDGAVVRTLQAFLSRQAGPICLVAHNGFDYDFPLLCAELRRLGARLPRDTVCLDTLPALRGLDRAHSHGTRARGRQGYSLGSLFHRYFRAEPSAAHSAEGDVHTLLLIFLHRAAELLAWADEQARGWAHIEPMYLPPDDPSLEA
# How it was run: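 Final conditions: 2.5 nM His-Tev-tagged TREX2 (E. coli-expressed), 60 nM fluorophore/quencher-labelled dsDNA, 50 mM Tris pH 7.4, 150 mM NaCl, 100 mM MgCl2, 1% DMSO; 10-point compound dose-response. Incubated 25 min at room temperature, then EDTA-quenched; fluorescence read at ex 570/em 615 nm. IC50 from four-parameter fit against pre-quenched and no-inhibitor controls.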
Structure (SMILES),pIC50 [1],pIC50 [2]
"Cc1nn(C)c(C)c1-c1cncc(N2CCC(O)(c3ccc(F)c(F)c3)CC2)n1 [Example 62, 4-(3,4-difluorophenyl)-1-(6-(1,3,5-trimethyl-1H-pyrazol-4-yl)pyrazin-2-yl)piperidin-4-ol]",> 7.00,4.00 to 5.00
"CCn1cc(-c2cncc(N3CCC(O)(c4ccc(F)c(F)c4)CC3)n2)c(C)n1 [Example 63, 4-(3,4-difluorophenyl)-1-(6-(1-ethyl-3-methyl-1H-pyrazol-4-yl)pyrazin-2-yl)piperidin-4-ol]",> 7.00,5.00 to 6.00
"O=C(NCCc1ccccc1)c1cncc(N2CCC(O)(c3ccc(F)cc3)CC2)n1 [Example 64, 6-(4-(4-fluorophenyl)-4-hydroxypiperidin-1-yl)-N-phenethylpyrazine-Z-carboxamide]",5.00 to 6.00,< 4.00
"O=C(NCc1ccncc1)c1cncc(N2CCC(O)(c3ccc(F)cc3)CC2)n1 [Example 65, 6-(4-(4-fluorophenyl)-4-hydroxypiperidin-1-yl)-N-(pyridin-4-ylmethyl)pyrazine-2-carboxamide]",< 5.00,< 4.00
"O=C(NCc1ccccn1)c1cncc(N2CCC(O)(c3ccc(F)cc3)CC2)n1 [Example 66, 6-(4-(4-fluorophenyl)-4-hydroxypiperidin-1-yl)-N-(pyridin-2-ylmethyl)pyrazine-2-carboxamide]",< 5.00,< 4.00
"CN1CCN(C(=O)c2cncc(N3CCC(O)(c4ccc(F)cc4)CC3)n2)CC1 [Example 67, (6-(4-(4-fluorophenyl)-4-hydroxypiperidin-1-yl)pyrazin-2-yl)(4-methylpiperazin-1-yl)methanone]",< 5.00,< 4.00
"O=C(NCCc1ccccn1)c1cncc(N2CCC(O)(c3ccc(F)cc3)CC2)n1 [Example 68, 6-(4-(4-fluorophenyl)-4-hydroxypiperidin-1-yl)-N-(2-(pyridin-2-yl)ethyl)pyrazine-2-carboxamide]",5.00 to 6.00,< 4.00
"COCCNC(=O)c1cncc(N2CCC(O)(c3ccc(F)cc3)CC2)n1 [Example 69, 6-(4-(4-fluorophenyl)-4-hydroxypiperidin-1-yl)-N-(2-methoxyethyl)pyrazine-2-carboxamide]",< 5.00,< 4.00
"CN(C)CCCNC(=O)c1cncc(N2CCC(O)(c3ccc(F)cc3)CC2)n1 [Example 70, N-(3-(dimethylamino)propyl)-6-(4-(4-fluorophenyl)-4-hydroxypiperidin-1-yl)pyrazine-2-carboxamide]",< 5.00,< 4.00
"O=C(NCC(O)c1ccccc1)c1cncc(N2CCC(O)(c3ccc(F)cc3)CC2)n1 (stereo not shown) [Example 71, 6-(4-(4-fluorophenyl)-4-hydroxypiperidin-1-yl)-N-(2-hydroxy-2-phenylethyl)pyrazine-2-carboxamide]",5.00 to 6.00,< 4.00
"Cc1cnn(-c2cncc(N3CCC(O)(c4ccc(F)cc4)CC3)n2)c1 [Example 72, 4-(4-fluorophenyl)-1-(6-(4-methyl-1H-pyrazol-1-yl)pyrazin-2-yl)piperidin-4-ol]",5.00 to 6.00,< 4.00
"OC1(c2ccccc2)CCN(c2cncc(-n3cccn3)n2)CC1 [Example 73, 1-(6-(1H-pyrazol-1-yl)pyrazin-2-yl)-4-phenylpiperidin-4-ol]",< 5.00,< 4.00
"OC1(c2ccccn2)CCN(c2cncc(-n3cccn3)n2)CC1 [Example 74, 1-(6-(1H-pyrazol-1-yl)pyrazin-2-yl)-4-(pyridin-2-yl)piperidin-4-ol]",< 5.00,< 4.00
"OC1(c2cccnc2)CCN(c2cncc(-n3cccn3)n2)CC1 [Example 75, 1-(6-(1H-pyrazol-1-yl)pyrazin-2-yl)-4-(pyridin-3-yl)piperidin-4-ol]",< 5.00,< 4.00
"OC1(c2ccncc2)CCN(c2cncc(-n3cccn3)n2)CC1 [Example 76, 1-(6-(1H-pyrazol-1-yl)pyrazin-2-yl)-4-(pyridin-4-yl)piperidin-4-ol]",< 5.00,< 4.00
"OC1(c2ccc(F)cc2)CCN(c2cncc(N3CCCC3)n2)CC1 [Example 78, 4-(4-fluorophenyl)-1-(6-(pyrrolidin-1-yl)pyrazin-2-yl)piperidin-4-ol]",< 5.00,< 4.00
"OC1(c2ccc(F)cc2)CCN(c2cccc(-n3cccn3)n2)CC1 [Example 79, 1-(6-(1H-pyrazol-1-yl)pyridin-2-yl)-4-(4-fluorophenyl)piperidin-4-ol]",5.00 to 6.00,< 4.00
"OC1(c2ccc(F)cc2)CCN(c2nccc(-n3cccn3)n2)CC1 [Example 80, 1-(4-(1H-pyrazol-1-yl)pyrimidin-2-yl)-4-(4-fluorophenyl)piperidin-4-ol]",5.00 to 6.00,< 4.00
"OC1(c2ccc(F)cc2)CCN(c2ccc3nccn3n2)CC1 [Example 81, 4-(4-fluorophenyl)-1-(imidazo[1,2-b]pyridazin-6-yl)piperidin-4-ol]",5.00 to 6.00,< 4.00
"OC1(c2ccc(F)cc2)CCN(c2cnc3ccccc3n2)CC1 [Example 82, 4-(4-fluorophenyl)-1-(quinoxalin-2-yl)piperidin-4-ol]",5.00 to 6.00,< 4.00
"OC1(c2ccc(F)cc2)CCN(c2ccc3ccccc3n2)CC1 [Example 83, 4-(4-fluorophenyl)-1-(quinolin-2-yl)piperidin-4-ol]",< 5.00,< 4.00
"OC1(c2ccc(F)cc2)CCN(c2cncc(Cl)n2)CC1 [Example 84, 1-(6-chloropyrazin-2-yl)-4-(4-fluorophenyl)piperidin-4-ol]",5.00 to 6.00,< 4.00
"COc1cc(N2CCC(O)(c3ccc(F)cc3)CC2)ncn1 [Example 85, 4-(4-fluorophenyl)-1-(6-methoxypyrimidin-4-yl)piperidin-4-ol]",5.00 to 6.00,< 4.00
"OC1(c2ccc(F)cc2)CCN(c2ccccn2)CC1 [Example 86, 4-(4-fluorophenyl)-1-(pyridin-2-yl)piperidin-4-ol]",< 5.00,< 4.00
"Cc1nn(C)cc1-c1cc(N2CCC(O)(c3ccc(F)c(F)c3)CC2)cnn1 [Example 87, 4-(3,4-difluorophenyl)-1-(6-(1,3-dimethyl-1H-pyrazol-4-yl)pyridazin-4-yl)piperidin-4-ol]",5.00 to 6.00,< 4.00
"Cc1nn(C)cc1-c1cnnc(N2CCC(O)(c3ccc(F)c(F)c3)CC2)c1 [Example 88, 4-(3,4-difluorophenyl)-1-(5-(1,3-dimethyl-1H-pyrazol-4-yl)pyridazin-3-yl)piperidin-4-ol]",6.00 to 7.00,< 4.00
"Cc1ncc(-c2cnn(C)c2)nc1N1CCC(O)(c2ccc(F)c(F)c2)CC1 [Example 89, 4-(3,4-difluorophenyl)-1-(3-methyl-6-(1-methyl-1H-pyrazol-4-yl)pyrazin-2-yl)piperidin-4-ol]",5.00 to 6.00,< 4.00
"Cc1ncc(N2CCC(O)(c3ccc(F)c(F)c3)CC2)nc1-c1cnn(C)c1 [Example 90, 4-(3,4-difluorophenyl)-1-(5-methyl-6-(1-methyl-1H-pyrazol-4-yl)pyrazin-2-yl)piperidin-4-ol]",6.00 to 7.00,< 4.00
"Cc1nc(-c2cn(C)nc2C)c(F)c(N2CCC(O)(c3ccc(F)c(F)c3)CC2)n1 [Example 91, 4-(3,4-difluorophenyl)-1-(6-(1,3-dimethyl-1H-pyrazol-4-yl)-5-fluoro-2-methylpyrimidin-4-yl)piperidin-4-ol]",6.00 to 7.00,< 4.00
